The test system of experiment [1] is Human breast cancer cells SK-BR-3 (WT). Briefly: Cell proliferation inhibition assay (CTG), SK-BR-3 (WT). Particulars: Homo sapiens, 72 h, SK-BR-3 (WT) cells, 3 days incubation, CTG readout. Type of experiment: cell-based. The procedure:
(§1) Cell Proliferation Inhibition Assay
(§2) 1. Experimental Materials
(§3) II. Experimental Protocol
(§4) • a) Cell suspension was prepared; • b) The medium was removed from the culture flask; • c) The cells were rinsed once with PBS; • d) Trypsin was added for digestion, and the cells were centrifuged and collected; • e) The cells were resuspended in medium, counted and adjusted to an appropriate concentration; • f) 100 µL of cell suspension was added to each well of a 96-well plate. One plate was used for each cell line, which was incubated overnight in a 37 °C, 5% CO2 incubator.
(§5) 2. Treatment of Compounds
(§6) • a) Serial dilutions of the test compounds were prepared: The compound was prepared as a 10 mM stock solution. 18 µL of the stock solution was dissolved in 982 µL of the culture medium containing DMSO, followed by 4-fold serial dilutions in culture medium containing 0.5% DMSO to give 9 concentrations. The concentrations of the diluted compound were as follows: 180000 nM, 45000 nM, 11250 nM, 2812.5 nM, 703.13 nM, 175.78 nM, 43.95 nM, 10.99 nM, and 2.75 nM. • b) After thorough mixing, 20 µL of each compound solution was added to the cell plate containing 100 µL of cells per well. Each concentration was tested in triplicate. Final concentrations of the compound were as follows: 30000 nM, 7500 nM, 1875 nM, 468.75 nM, 117.188 nM, 29.30 nM, 7.32 nM, 1.83 nM, and 0.46 nM. • c) The cells were transferred into the incubator and incubated for 3 days.
(§7) The cell plate was removed, 25 µL of CTG reagent was added to each well of the 96-well plate, the mixture was shook on a plate shaker at room temperature for 10 minutes, and the plate was read.
(§8) The cell survival rate was calculated using the following formula (% Cell Survival): % Cell Survival = 100% × (OD_Sample−OD_LCave)/(OD_HC−OD_LCave) [formula] • OD_HC: Reading of the 0.1‰ DMSO control group • OD_Sample: Reading of cells treated with compound • OD_LCave: Reading of blank medium
(§9) Analyzed by Prism: Dose-response-Inhibition - Log (inhibitor) vs response (three parameters for the best fit).

Experiment [2] deals with Human breast cancer cells T47D (H1047R). Kind of experiment: Cell proliferation inhibition assay (CTG), T47D (H1047R). The format is cell-based. Particulars: Homo sapiens, 72 h, 3 days incubation, CTG readout. The procedure: as §1, §2, §3, §4, §5, §6, §7, §8, §9

What is called IC50 is the midpoint of a concentration-inhibition curve. Lower therefore signals greater potency. In the case of `C[C@@H]1CN(S(=O)(=O)N2CCc3c(oc4c([C@@H](C)Nc5ccccc5C(=O)O)cc(F)cc4c3=O)C2)C[C@@H](C)O1` [Compound C155], the values for the half-maximal inhibitory concentration (IC50) in experiment [1] and in experiment [2] were over 5 µM and at most 0.5 µM, respectively.

As for `Cc1cc([C@@H](C)Nc2ccccc2C(=O)O)c2oc3c(c(=O)c2c1)CCN(S(=O)(=O)c1c(C)nnn1C)C3` [Compound C156], the IC50 in experiment [1] is over 5 µM; in experiment [2], at most 0.5 µM.

Take `Cc1nnn(C)c1S(=O)(=O)N1CCc2c(oc3c([C@@H](C)Nc4ccccc4C(=O)O)cc(F)cc3c2=O)C1` [Compound C157]: the IC50 in experiment [1] was over 5 µM; in experiment [2], 0.5 to 2 µM.

On to `Cc1cc([C@@H](C)Nc2ccccc2C(=O)O)c2oc3c(c(=O)c2c1)CCN(S(=O)(=O)c1c(C)cnn1C)C3` [Compound C158], for which the IC50 in experiment [1] is over 5 µM; in experiment [2], at most 0.5 µM.

Consider `Cc1cnn(C)c1S(=O)(=O)N1CCc2c(oc3c([C@@H](C)Nc4ccccc4C(=O)O)cc(F)cc3c2=O)C1` [Compound C159], for which the IC50 is over 5 µM in experiment [1] and at most 0.5 µM in experiment [2].

Turning to `Cc1nsc(C)c1S(=O)(=O)N1CCc2c(oc3c([C@@H](C)Nc4ccccc4C(=O)O)cc(F)cc3c2=O)C1` [Compound C160], the IC50 in experiment [1] is over 5 µM; in experiment [2], at most 0.5 µM.

Consider `Cc1cc([C@@H](C)Nc2ccccc2C(=O)O)c2oc3c(c(=O)c2c1)CCN(S(=O)(=O)c1ccccc1F)C3` [Compound C162], for which the IC50 is over 5 µM in experiment [1] and at most 0.5 µM in experiment [2].

As for `CCOC(=O)c1ccccc1N[C@H](C)c1cc(C)cc2c(=O)c3c(oc12)CN(S(=O)(=O)N1CCOCC1)CC3` [Compound C165], the IC50 in experiment [1] was over 5 µM; in experiment [2], 0.5 to 2 µM.

For the compound `Cc1cc([C@@H](C)Nc2ccccc2C(=O)O)c2oc3c(c(=O)c2c1)CCN(S(C)(=O)=O)C3` [Compound C168], the values for the IC50 in experiment [1] and in experiment [2] were over 5 µM and 0.5 to 2 µM, respectively.

As to `Cc1cc([C@@H](C)Nc2ccccc2C(=O)O)c2oc3c(c(=O)c2c1)CCN(C(C)C)C3` [Compound C171], the IC50 was over 5 µM in experiment [1] and 0.5 to 2 µM in experiment [2].

In the case of `Cc1cc([C@@H](C)Nc2ccccc2C(=O)O)c2oc3c(c(=O)c2c1)CCN(c1ccccn1)C3` [Compound C172], the IC50 was over 5 µM in experiment [1] and at most 0.5 µM in experiment [2].

For `Cc1cc([C@@H](C)Nc2ccccc2C(=O)O)c2oc3c(c(=O)c2c1)CCN(C1CC2CCC1C2)C3` (stereo partly shown) [Compound C173], the IC50 is over 5 µM in experiment [1] and 0.5 to 2 µM in experiment [2].

Consider `Cc1cc([C@@H](C)Nc2ccccc2C(=O)O)c2oc3c(c(=O)c2c1)CCN(c1ncccn1)C3` [Compound C175], for which the IC50 in experiment [1] was over 5 µM; in experiment [2], at most 0.5 µM.

Take `Cc1cc([C@@H](C)Nc2ccccc2C(=O)O)c2oc3c(c(=O)c2c1)CCN(Cc1ccccc1)C3` [Compound C176]: the IC50 in experiment [1] was over 5 µM; in experiment [2] it was at most 0.5 µM.

For `[2H]C([2H])([2H])n1ncc(C)c1S(=O)(=O)N1CCc2c(oc3c([C@@H](C)Nc4ccccc4C(=O)O)cc(C)cc3c2=O)C1` [Compound C177], the IC50 was over 5 µM in experiment [1] and at most 0.5 µM in experiment [2].

Regarding `CC[C@H](C)N1CCc2c(oc3c([C@@H](C)Nc4ccccc4C(=O)O)cc(C)cc3c2=O)C1` [Compound C178], the IC50 in experiment [1] was over 5 µM; in experiment [2], at most 0.5 µM.

For `CC[C@@H](C)N1CCc2c(oc3c([C@@H](C)Nc4ccccc4C(=O)O)cc(C)cc3c2=O)C1` [Compound C179], the IC50 is over 5 µM in experiment [1] and at most 0.5 µM in experiment [2].

`Cc1cc([C@@H](C)Nc2ccccc2C(=O)O)c2oc3c(c(=O)c2c1)CCN(c1ccccc1)C3` [Compound C180]: the IC50 was over 5 µM in experiment [1] and at most 0.5 µM in experiment [2].

Consider `Cc1cc([C@@H](C)Nc2ccccc2C(=O)O)c2oc3c(c(=O)c2c1)CCN(S(=O)(=O)Cc1ccccc1)C3` [Compound C181], for which the IC50 in experiment [1] is over 5 µM; in experiment [2] it was at most 0.5 µM.

`Cc1cnn(C)c1S(=O)(=O)N1CCc2c(nc3c([C@@H](C)Nc4ccccc4C(=O)O)cc(F)cn3c2=O)C1` [Compound C182]: the IC50 was over 5 µM in experiment [1] and at most 0.5 µM in experiment [2].

On to `Cc1cc([C@@H](C)Nc2ccccc2C(=O)O)c2nc3c(c(=O)n2c1)CCN(S(=O)(=O)c1c(C)cnn1C)C3` [Compound C189], for which the IC50 in experiment [1] is over 5 µM; in experiment [2], at most 0.5 µM.

As for `C[C@@H](Nc1ccccc1C(=O)O)c1cc(F)cn2c(=O)c3c(nc12)CN(Cc1ccccc1)CC3` [Compound C190], the IC50 in experiment [1] was over 5 µM; in experiment [2], 0.5 to 2 µM.

With `Cc1cc([C@@H](C)Nc2ccccc2C(=O)O)c2nc3c(c(=O)n2c1)CCN(S(=O)(=O)c1ccccc1)C3` [Compound C191], the IC50 is over 5 µM in experiment [1] and at most 0.5 µM in experiment [2].

For the compound `C[C@@H](Nc1ccccc1C(=O)O)c1cc(F)cn2c(=O)c3c(nc12)CN(S(=O)(=O)c1ccccc1)CC3` [Compound C192], the values for the IC50 in experiment [1] and in experiment [2] were over 5 µM and at most 0.5 µM, respectively.

For `CC(C)S(=O)(=O)N1CCc2c(nc3c([C@@H](C)Nc4ccccc4C(=O)O)cc(F)cn3c2=O)C1` [Compound C193], the IC50 was over 5 µM in experiment [1] and at most 0.5 µM in experiment [2].

For `C[C@@H](Nc1ccccc1C(=O)O)c1cc(F)cn2c(=O)c3c(nc12)CN(c1ccccc1)CC3` [Compound C208], the IC50 is over 5 µM in experiment [1] and 0.5 to 2 µM in experiment [2].

The record behind these values is EP4772513A1, “PI3K-ALPHA INHIBITOR AND USE THEREOF” (TYK Medicines (Zhengzhou), Inc., priority 2023, dated 2025).
